63 compounds from a melting point compilation (Tetko et al.; mined from patent text by program, amines drawn as free bases though some values may be those of a salt) can be followed below.

A word on the melting point: it is the temperature of the solid-liquid transition.

`CCCc1cc2c(=O)cc(C(=O)O)[nH]c2cc1OCCCOc1c(CCC)cc(C(C)=O)c(O)c1CCC` showed a melting point of 128 to 131 °C. Next, `O=CNc1ccc2[nH]c3cc(-c4ccccc4Cl)c4c(c3c2c1)C(=O)NC4=O`: 293 to 297 °C; `Cn1ncc(/C=C/C(=O)Nc2ccc(Cc3nn(C)c(=O)o3)cc2)c1-c1ccc(F)cc1`: 200 to 201 °C.

`CCOC(=O)c1cc(CCc2cc3c(s2)-n2c(C)nnc2CN=C3c2ccccc2Cl)ccc1CC(=O)Nc1cccc(/C=C/c2nc(C3CCC3)cs2)c1` gave a melting point of 118 to 120 °C. Take `CC(=O)Nc1cc(C)nn1C`: the melting point fell in the range of 45 to 46 °C.

Regarding `Cn1nnc(Cc2ccc(NC(=O)/C=C/c3cnn(C)c3-c3ccc(F)cc3)cc2)n1`, the melting point was 159 to 161 °C. Under `CCN(CC)CCc1nc(-c2ccc(OC)c(OC)c2)c2cc(OC)c(OC)cc2n1` stands 164 to 166 °C; under `CCCc1nn(C)c2c(NCc3ccc4c(c3)OCO4)nc(-c3ccc(C(=O)O)cc3)nc12`, 114 °C. Next, `CC1(C2CCCC2)Cc2cc(OCC(=O)NC(=N)N)c(Cl)c(Cl)c2C1=O` (stereo not drawn): 216 °C. Compound `Cc1cc(C)c(S(=O)(=O)N(C)c2ccccc2CSc2nccn2-c2ccccn2)c(C)c1` came in with a melting point of 131 to 133 °C. As to `O=C(Nc1ccc(N2CCCC2=O)cc1)OCc1ccccc1`, the melting point was determined as 174 °C. Under `O=C(CCc1ccccc1)Nc1cc(C(=O)O)ccn1` stands 266 to 267 °C. Under `Cc1ccccc1NC(=O)Nc1ccc(CC(=O)NC2(c3cc(CCC(=O)O)on3)CCCC2)cc1` stands 195 to 197 °C; under `CCC(=O)CC(=O)c1ccc(C(=O)CC(=O)CC)cc1`, 122 to 124 °C. Under `Nc1ccc(NC(=S)NC2CCCCC2)cn1` stands 147 to 149 °C; under `COC(=O)CC/C(C)=C/Cc1c(NC=O)c2c(c(C)c1OC)COC2=O`, 187 to 189 °C. The compound `CCSc1cc2c(cc1OC)CCn1c-2cc2c1C(=O)N(C(C)(C)C)CCCC2` registered a melting point of 124 to 125 °C.

Regarding `Cc1cc(N(C)C(=O)OC(C)(C)C)c(C)c(C)c1O`, the melting point lay in the range of 163 to 166 °C. Under `O=C1c2ccccc2C(c2ccc(O)cc2)(c2ccc(O)cc2)c2ccccc21` stands 320 to 322 °C; under `COc1ccc(C)cc1NC(=O)Nc1ccc(N2CCN(C(=O)Nc3ccc(N)cc3C(F)(F)F)CC2)cc1`, 244 to 246 °C. Next, `CCCc1c2nc(C(=O)OCC)cc(NC)c2cc2c(=O)cc(C(=O)OCC)oc12`: 235 to 237 °C; `Nc1cccc2cc(-c3ccccc3)cnc12`: 64 to 66 °C; `Cc1nnc2n1-c1sc(Cl)cc1C(c1ccccc1C(F)(F)F)=NC2`: 193 to 195 °C. As for `Fc1ccc(-c2n[nH]cc2-c2ccnc(Nc3ccccc3F)n2)cc1`, the melting point was in the range of 239 to 240 °C. Next, `CCOc1ccc2c(c1)C(=O)N(CCCCBr)S2(=O)=O`: 105 to 108 °C; `COc1ccc(N2CCN(CC(O)COc3ccc(OCc4ccccc4)cc3)CC2)c(OC)c1` (stereo not drawn): 110 to 112 °C; `O=C(CSCCCCCCO)c1ccc2[nH]c(=O)[nH]c2c1`: 180 to 181 °C. In the case of `O=C(O)c1cccc(-c2ncn(-c3ccc(N4CCCC4=O)cc3)n2)c1`, the melting point was 270 to 273 °C. With `CC(C)(C)c1cc(C(=O)NCc2cccc([N+](=O)[O-])c2)cc(C(C)(C)C)c1O`, the melting point lay in the range of 210 to 211 °C. Regarding `CCCCCCCCCCCCCC(=O)N[C@H]1CCCNC(=O)C1`, the melting point is 97 to 98 °C. `CC(O)c1ccc(O)c(Cl)n1` (stereo not drawn) registered a melting point of 89 to 92 °C. `CCOC(=O)c1ccc2c(c1)N(C(=O)c1ccccc1)Cc1ccccc1O2`: the melting point was in the range of 149 to 150 °C. Under `NC(=O)C1CCCCc2cc3c(nc21)CCCCC3` (stereo not drawn) stands 179 °C.

On to `Cn1nc(-c2c(Cl)cccc2Cl)nc1-c1cccs1`, for which the melting point was 161 to 163 °C. In the case of `CC(C)(C)OC(=O)N1CCc2cccc([N+](=O)[O-])c2CC1`, the melting point was in the range of 85 to 88 °C.

`COc1cccc(C=O)c1OCc1ccccc1` had a melting point of 41 to 43 °C.

The compound `CN(CCF)c1nc2cc(NC(=O)c3c(C(=O)N4CCC4)cnn3C)ccn2n1` returned a melting point of 236 to 237 °C. With `Cn1cnc2nc(-c3cc(Cl)c(Cl)cc3C(=O)O)nn2c1=S`, the melting point was in the range of 298 to 300 °C. Next, `CC(C)[C@H](NC(=O)[C@@H](C)c1ccc(Nc2nc(C(F)(F)F)cs2)cc1)C(=O)O`: 99 to 101 °C; `Cc1cc(Oc2ccc(Cl)c(C(F)(F)F)c2)ncc1[N+](=O)[O-]`: 75 to 80 °C; `CC(=O)Nc1nc(NC(C)=O)c2[nH]cnc2n1`: 293 to 295 °C. Next, `Cc1cccc(C(=O)NC(C)C)c1[N+](=O)[O-]`: 126 to 128 °C. The compound `O=C(O)C1=Cc2cc(Cl)c(Oc3ccccc3)cc2OC1C(F)(F)F` (stereo not drawn) registered a melting point of 220 to 222 °C. `COC(=O)C(=O)c1ccc(OCCOc2ccc3ccccc3c2)cc1Cl` came in with a melting point of 123 to 125 °C. Under `COc1ccc(-c2ccncc2)cc1-c1ccc(F)c(Cl)c1` stands 115 °C. Next, `CC(C)(C)c1ccc(OCCOc2ccccc2N)c(N)c1`: 148 to 150 °C; `COC(=O)CS(=O)(=O)C1CCCCC1Sc1cc(C(C)(C)C)c(O)c(C(C)(C)C)c1` (stereo not drawn): 93 °C.

The compound `CCC(C)N(C)C(=O)c1cc(-c2ccccc2)c2sccc2c1` (stereo not drawn) gave a melting point of 105 °C. `CCOC(=O)C1C(=O)Nc2ccccc2SC1c1ccccc1` (stereo not drawn) gave a melting point of 199 °C. `Cc1ccc(CC2CCN(CCOc3ccc4cc(O)ccc4c3)CC2)cc1` came in with a melting point of 164 to 166 °C. Under `N#Cc1cc(-c2ccc3c(c2)C(C2CC2)(C2CC2)OC(=O)N3)cs1` stands 244 to 245 °C; under `C#CCOc1cc(Oc2cc(Cl)cc(Cl)c2)ncn1`, 136 °C. As for `COc1ccc(Cl)c(Oc2c(C)nc(N3CCOCC3)nc2Cl)c1`, the melting point amounted to 134 °C. Under `N#Cc1c(-c2ccccc2)c(-c2ccccc2)nn(CCO)c1=O` stands 197 to 198 °C; under `COc1ccccc1CNc1nc(Cl)nc2c1ncn2[C@@H]1SC[C@@H](O)[C@H]1O`, 188 °C; under `Cc1cc(CCCCCOc2c(Cl)cc(-c3nnn[nH]3)cc2Cl)on1`, 122 to 123 °C. `CCn1nc(Cl)c2ccn(-c3ccc(C)cc3C)c2c1=O`: the melting point lay in the range of 94 to 95 °C.

Compound `CCOC(=O)N1C(=O)NC(=O)C12C(=O)N(Cc1ccc(Cl)c(Cl)c1)c1ccccc12` (stereo not drawn) registered a melting point of 192 to 194 °C. Next, `O=C(O)c1csc(-c2ccc(Cl)cc2)n1`: 189 to 190 °C; `O=C(Nc1ccc(Cl)nc1)N1CCc2ccccc2CC1`: 170 to 172 °C; `Nc1cc(C(=O)NNC(=O)Cc2cccc(O)c2)ccc1O`: 264 to 265 °C.

In the case of `COC(=O)c1ccc(Cn2ncc3ccc([N+](=O)[O-])cc32)cc1`, the melting point lay within 171 to 172 °C.

`Clc1cc(N2CCNCC2)ccn1` registered a melting point of 119 to 120 °C.
